The experiment deals with T1, COX-2 (Ovis aries, UniProt P79208).
T1 construct: gene PTGS2; ovine purified COX-2
T1 sequence (P79208 17-603): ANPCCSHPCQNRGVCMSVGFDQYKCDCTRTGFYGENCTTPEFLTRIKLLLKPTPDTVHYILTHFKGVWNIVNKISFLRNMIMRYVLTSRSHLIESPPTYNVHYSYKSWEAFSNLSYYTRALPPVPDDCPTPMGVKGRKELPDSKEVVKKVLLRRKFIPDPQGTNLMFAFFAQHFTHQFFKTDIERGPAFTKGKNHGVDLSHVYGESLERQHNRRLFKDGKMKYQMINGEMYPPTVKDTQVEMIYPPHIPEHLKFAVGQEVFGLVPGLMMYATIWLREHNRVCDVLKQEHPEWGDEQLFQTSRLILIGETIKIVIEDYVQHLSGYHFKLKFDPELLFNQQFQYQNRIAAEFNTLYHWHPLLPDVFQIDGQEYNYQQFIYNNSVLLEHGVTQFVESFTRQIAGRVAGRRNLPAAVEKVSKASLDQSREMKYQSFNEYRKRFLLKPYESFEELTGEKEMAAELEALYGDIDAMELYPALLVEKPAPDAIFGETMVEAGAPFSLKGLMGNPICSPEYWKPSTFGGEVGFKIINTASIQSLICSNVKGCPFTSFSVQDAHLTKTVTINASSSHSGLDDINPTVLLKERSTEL
Put plainly: Cayman colorimetric COX (ovine) inhibitor screening assay, purified enzyme. Format: biochemical.

The compound `CC(=O)/C=C/C12OC1(C)CC(OC1OC(CO)C(O)C(O)C1O)CC2(C)C` (stereo not shown) [ICSB, icariside B2] had a half-inhibitory concentration (IC50) of 7.8 ± 0.26 µM.

The record behind these values is publication PMC7408066, “Attenuation of Inflammatory Symptoms by Icariside B2 in Carrageenan and LPS-Induced Inflammation Models via Regulation of MAPK/NF-κB Signaling Cascades” (Biomolecules, 2020).
